Measured values reported in paper PMC9504178 (Viruses, 2022).

Tests used:
NL09 or NL11 = assay type: cell-based, influenza A virus
NL09 and NL11 strains = assay type: cell-based, influenza A virus

Structure (SMILES): CN(C)C/C=C/C(=O)Nc1cc2c(Nc3ccc(F)c(Cl)c3)ncnc2cc1O[C@H]1CCOC1 [AF, afatinib]
- reduction of viral titers in hPCLSs (NL09 or NL11): more than 1000 fold

Structure (SMILES): Cn1cc(-c2cc3c(N4CCN(c5ncc([C@@](C)(N)c6ccc(F)cc6)cn5)CC4)ncnn3c2)cn1 [AV, avapritinib]
- reduction of viral titers in hPCLSs (NL09 or NL11): ~ 10 fold

Structure (SMILES): CNC(=O)c1cc(Oc2ccc(NC(=O)Nc3ccc(Cl)c(C(F)(F)F)c3)c(F)c2)ccn1 [RG, regorafenib]
- reduction of viral titers in hPCLSs (NL09 or NL11): more than 1000 fold
- viral reduction in hPCLSs (NL09 or NL11): ~ 4 log10
- viral reduction in A549 cells (NL09 and NL11 strains): ~ 2 log10
